# Like-named read-outs stand apart in the source and are kept apart here.
# What was measured:
# [1] = test system: TM4 mouse Sertoli cells; experiment: Cell growth and viability (MTT), dose-response of the drugs alone; format: cell-based; conditions: TM4 cells; for IC50: read-out: IC50 ± SE; for IC20: read-out: IC20 ± SE; for IC80: read-out: IC80 ± SE
# Protocol: Cells were maintained in standard conditions for 24 h before treatments. […] All azoles were dissolved in DMSO. In an effort to avoid a possible experimental artifact with vehicles, experiments were performed including control groups in which the effect of the drug vehicle alone was tested (vehicle control, vCTR). […] For experiments with N-acetylcysteine (NAC), 24 h after seeding cells were pre-treated for 1 h with the ROS inhibitor (1 mM) and then maintained in co-treatment with azoles for 48 h.
# TM4 cells were seeded at a density of 1 × 10^4/cm^2, and cultures incubated at standard conditions in the presence or the absence of azoles to reach final concentrations ranging from 0.078 µM up to 320 µM in culture medium. Cell growth and viability were assessed at 24 and 48 h by Trypan-blue exclusion assay and MTT (3-(4,5-dimethylthiazol-2-yl)-2,5-diphenyl-2H-tetrazolium-bromide) colorimetric method (Sigma-Aldrich, St. Louis, MO, USA), quantifying the metabolic efficiency of living cells.
# The Interaction Index (II) was calculated, as previously described, by modifying the Chou and Talalay equation [78]. Specifically, Chou and Talalay’s median-effect method estimates the IC50 and the sigmodicity coefficient m values using linear regression of the linearised dose-response curve.
# For a two-drug assay, II is the summation of the ratios of the doses (Dn) of the drugs in combination, and the concentrations of the two drugs alone (IDx,n), to obtain a fraction x of cells affected by drug combinations (Fa). IDx,n is estimated by the following equation:(1) IDx,n=IC50(Fa/1−Fa)^1/mn
# [2] = cited from earlier work
# [3] = test system: C-PARP1 in TM4 cells; experiment: Western blot of cleaved PARP1 (C-PARP1); format: cell-based, mouse; conditions: 48 h exposure, ratio of cleaved PARP1 to total PARP1, vs vCTR
# Protocol: The protein extracts were run on a 10% SDS-PAGE and transferred onto PVDF filters and maintained at room temperature (RT) for 2 h in 5% non-fat dry milk diluted in TBST (containing 0.1% Tween-20). After washing, membranes were incubated O/N at 4 °C with the primary antibody anti-PARP1 (Cell Signaling, Danvers, MA, USA) diluted to 1:1000 in 1% non-fat dry milk in TBST. After washing, PVDF filters were incubated for 1 h at RT with the anti-rabbit (1:5000) HRP-conjugated secondary antibody (Immunological Sciences, by Società Italiana Chimici, Rome, Italy). ECL West Pico Plus chemiluminescent substrate was used to detect signals using a ChemiDoc XRSplus imaging system (Bio-Rad Laboratories, Hercules, CA, USA). The optical densities of blot bands were quantified using ImageJ software (US National Institutes of Health, Bethesda, MD, USA); the graph values represent the ratios of cleaved PARP1 to total PARP1. ß-actin was used as loading control.
# [4] = test system: ROS production in TM4 cells; experiment: Intracellular ROS detection (DCFH-DA fluorescence); format: cell-based, mouse; conditions: 3 h of incubation, vs vCTR
# Protocol: The intracellular ROS production was detected by using 2′,7′-dichlorofluorescein diacetate (DCFH-DA) (Molecular Probes, Eugene, OR, USA), as previously reported. In brief, after 30 min and 3 h of treatments, samples were incubated with 1 µM DCFH-DA at 37 °C for 30 min. Subsequently, cells were collected and twice washed in ice-cold PBS; samples were then analysed using flow cytometry to detect the presence of intracellular ROS at the wavelengths of 502 and 524 nm, for the excitation and the emission, respectively; the fluorescence intensity was detected with a Perkin Elmer LS-50B spectrofluorometer. Cells treated with 500 µM tert-butyl hydroperoxide (t-BHP) for 1.5 h were used as a positive control for ROS generation.
# [5] = test system: TM4 cells; experiment: Annexin V-FITC / propidium iodide assay of apoptosis and necrosis; format: cell-based, mouse; conditions: for apoptosis induction / cell death: 48 h, annexin V/PI, vs vCTR
# Protocol: Cells were maintained in standard conditions for 24 h before treatments. […] All azoles were dissolved in DMSO. In an effort to avoid a possible experimental artifact with vehicles, experiments were performed including control groups in which the effect of the drug vehicle alone was tested (vehicle control, vCTR). In these experimental conditions, we excluded any negative effects of DMSO that is biocompatible with no biological effect per se. For experiments with N-acetylcysteine (NAC), 24 h after seeding cells were pre-treated for 1 h with the ROS inhibitor (1 mM) and then maintained in co-treatment with azoles for 48 h.
# Treated and control cells (vCTR) (1 × 10^6) were collected; after washing in ice-cold PBS, samples were resuspended in 1 mL of binding buffer (10 mM HEPES, 140 mM NaCl, and 2.5 mM CaCl2, at pH 7.4) containing 10 µg/mL Annexin V-FITC and 1 µg/mL PI. After staining (1 h incubation at room temperature), cells were then washed and subsequently analysed using an FACS Calibur instrument (BD Instruments Inc., San José, CA, USA). Cells treated with 25 µM Etoposide (Eto) for 24 h were used as a positive control for apoptosis induction. Data from 10,000 events per sample were collected and analysed using an FACS Calibur instrument (BD Instruments Inc., San José, CA, USA ) equipped with cell cycle analysis software (Modfit LT for Mac V3.0) in order to calculate the percentages of apoptotic and necrotic cells.
# [6] = test system: ΔΨm in TM4 cells; experiment: Mitochondrial membrane potential (ΔΨm) by JC-1 flow cytometry; format: cell-based, mouse; conditions: 3 h of incubation, JC-1, vs vCTR
# Protocol: Variations of the ΔΨm in samples exposed to azoles for 3 h were assessed using the lipophilic cation dye JC-1, as previously reported. Cells (1 × 10^6 per sample) were stained for 30 min at 37 °C in a humidified atmosphere, with 3 µM JC-1 (Molecular Probes, Eugene, OR, USA) and collected; after washing in PBS, cells were analysed using flow cytometry. To assure a positive control for the abatement of the ΔΨm, the cells were cultured in the presence of […] rotenone (Sigma-Aldrich, St. Louis, MO, USA) for 1 h at standard conditions, and then incubated with the potentiometric dye as described above. Experiments were performed in triplicate and analysed by an FACS Calibur instrument (BD Instruments Inc., San José, CA, USA). The fluorescent signals from JC-1 monomers or aggregates were detected through the FL-1 (525 ± 5 nm) and FL-2 bandpass filters (575 ± 5 nm), respectively; the forward and side scatter channels gated a minimum of 1 × 10^4 cells on the major population of normal-sized cells. ΔΨm data assessment was performed by the Cell Quest software (BD Instruments Inc., San José, CA, USA).
# [7] = cited from earlier work; remark: listed apart in the source
# [8] = 48 h of exposure, drug alone, 50% fraction of cells affected (Fa), non-linear fitting
# [9] = Mus musculus, 48 h of exposure, drug alone, 20% fraction of cells affected (Fa), non-linear fitting
# [10] = Mus musculus, 48 h of exposure, drug alone, 80% fraction of cells affected (Fa), non-linear fitting
smiles,measurement,setting,value
"OC(Cn1cncn1)(Cn1cncn1)c1ccc(F)cc1F [FCZ, fluconazole]",IC20 ± SE,"[1]; 48 h of exposure, drug alone, 20% fraction of cells affected (Fa), non-linear fitting",Not detectable
same,IC50 ± SE,[1]; [8],Not detectable
same,IC80 ± SE,"[1]; 48 h of exposure, drug alone, 80% fraction of cells affected (Fa), non-linear fitting",Not detectable
same,cytotoxic effects,"[1]; up to 320 µM, individually or in combination",no cytotoxic effects
"CC(=O)N1CCN(c2ccc(OCC3COC(Cn4ccnc4)(c4ccc(Cl)cc4Cl)O3)cc2)CC1 (stereo not drawn) [KCZ, ketoconazole]",plasma concentration,"[2]; human subjects, after treatment with 400 mg/day therapy",24.89 µM
same,systemic absorption after topical administration,"[2]; human, topical KCZ",little systemic absorption
same,IC50,"[1]; Mus musculus, TM4, 48 h, 48 h of exposure, drug alone, 50% fraction of cells affected (Fa), non-linear fitting",~73 µM
same,IC20,[1]; [9],18.3 ± 2.4 µM
same,IC80,[1]; [10],293 ± 38.1 µM
same,IC50,[1]; [8],73.2 ± 9.5 µM
same,C-PARP1 protein levels,[3],significantly increased
same,increase in ROS production,[4],~ 1.7 fold
same,apoptosis induction / cell death,[5],a level of apoptosis-induction occurred
same,mean intensity of red-orange fluorescence (MFI) of ΔΨm high population,[6],increases in MFI
"Clc1ccc(COC(Cn2ccnc2)c2ccc(Cl)cc2Cl)c(Cl)c1 (stereo not drawn) [MCZ, miconazole]",IC20,[1]; [9],8.6 ± 0.6 µM
same,IC80,[1]; [10],138 ± 9.8 µM
same,C-PARP1 protein levels,[3],significantly increased
same,increase in ROS production,[4],~ 1.4 fold
same,log Kow (log octanol-water partition coefficient),[7],6.35
same,apoptosis induction / cell death,[5],a level of apoptosis-induction occurred
"CC(=O)N[C@@H](CS)C(=O)O [NAC, N-acetylcysteine]",effect on KCZ- and PCZ/KCZ-induced apoptosis and necrosis,[5]; co-incubation for 48 h with 1 mM NAC,significantly reduced

# Source: PMC9140920 (International Journal of Molecular Sciences, 2022)
